One substance from patent US20250066835A1 (priority 2021, published 2025) can be followed below.

What all share (format): cell-based
The subject of assay [1] is colistin-sensitive Pseudomonas aeruginosa strain. The assay can be described thus: PTA staining / SEM backscattered electron image analysis of colistin-treated bacteria over time (FIG. 7). Particulars: colistin 2 mg/L, 37°C, initial concentration 10^6/ml. How it is done:
(§1) A Pseudomonas aeruginosa strain whose colistin sensitivity is known from an MIC value measured by a method of related art and a Pseudomonas aeruginosa strain whose colistin resistance is known are used. A bacterial solution suspended in a medium at initial concentration of 10^6/ml is treated with colistin of 2 mg/L, which is concentration that distinguishes between sensitive bacteria and resistant bacteria by the method of related art, is treated and cultured at 37° C., and a certain amount of the bacterial solution is sampled over time.
A polycarbonate track-etched membrane having a hole diameter of 0.2 μm is used as specimen equipment for the SEM observation of bacteria, and bacteria are uniformly collected in a certain area on the membrane. Conductivity is given to the specimen by pre-vaporizing platinum-palladium on a surface of the membrane.
After washing a medium component on a bacterial collection surface with physiological saline, bacteria are treated and fixed for 5 minutes with a glutaraldehyde fixing solution of 2.5% having a protein cross-linking effect in order to prevent the morphological change of the bacteria. After washing the excess fixing solution with water, the bacteria are treated with the PTA aqueous solution having the weight concentration of 10% for 2 minutes and stained. After washing the excess stain with water, the bacteria are dried on the track-etched membrane to form a specimen for the SEM observation.
SEM observation conditions are set to an acceleration voltage of 5 kV, backscattered electron detection, and magnification of 7,000 times. […]
(§2) Next, SEM observation is performed on each specimen from which the series of backscattered electron image (701) is obtained and a specimen in the control group prepared at the same timing, and twenty-five images per specimen and images of 300 to 500 bacterial cells are acquired. The number of images taken and the number of bacterial cells to be imaged are not limited to the above-described number as long as reproducibility of quantitative analysis can be ensured. […]

The subject of assay [2] is colistin-resistant Pseudomonas aeruginosa strain. As to the kind of experiment: PTA staining / SEM backscattered electron image analysis of colistin-treated bacteria over time. The note with it: colistin 2 mg/L, 37°C, after 60 minutes. As for the experimental part:
as §1
A polycarbonate track-etched membrane having a hole diameter of 0.2 μm is used as specimen equipment for the SEM observation of bacteria, and bacteria are uniformly collected in a certain area on the membrane. Conductivity is given to the specimen by pre-vaporizing platinum-palladium on a surface of the membrane. […]
as §2

For assay [3], the system named is Pseudomonas aeruginosa strain. As to the kind of experiment: Electronic staining with PTA aqueous solution and SEM observation after antibacterial agent treatment (FIG. 6). The note with it: cultured at 37°C for 30 minutes, 10% PTA aqueous solution, 5 kV backscattered electron image. As for the experimental part:
As an example, in FIG. 6, a Pseudomonas aeruginosa strain is used as a material, bacteria in a control group not treated with the antibacterial agent and bacteria in a test group treated with antibacterial agent colistin are cultured at 37° C. for 30 minutes, the bacteria are collected on a track-etched membrane and fixed with glutaraldehyde of 2.5%, a specimen is prepared by performing electronic staining for 2 minutes by using a PTA aqueous solution having weight concentration of 10% as a stain and a platinum blue aqueous solution as a comparison, and a backscattered electron image is obtained by SEM observation at an acceleration voltage of 5 kV.
In the specimen stained with the PTA aqueous solution, an image of bacteria having low image brightness is observed in the control group, and an image of bacteria having high image brightness is observed in the test group. On the other hand, in the specimen stained with the platinum blue aqueous solution, the image brightness of the bacteria in both the control group and the test group is high, and no significant difference is observed between the control group and the test group.

Take colistin: the “ratio of the microbe 1 (corresponds to viability)” value in assay [1] (after 8 minutes) is listed as 80%; in assay [1] (after 30 minutes) it was 60%; in assay [1] (after 60 minutes) it was 0%; in assay [2], “about 95%”. In addition, in assay [3], the “PTA staining intensity / image brightness of treated bacteria” value is recorded as “strong PTA staining”.
